IC50, EC50 and AC50 data for 4 compounds are collected here from ChEMBL document CHEMBL1201862, “PubChem BioAssay data set” (2004).

Active and inactive are the calls of the source.

Assay [1] is described as follows: cytotoxicity in HEK-293T cells, dose response, cytotoxicity control for TCR NF-kB inhibitor project, luminescence, T-cell screen hits (AID 489026).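 Also: cells exposed to compound about 14 hours before the viability readout.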 It counts as functional, cell-based.
Another assay has as its system J774.A1. The assay can be described thus: Confirmation of image-based Screening Assay for Inhibitors of Phagocytosis. [Related pubchem assays (depositor defined):AID1029, AID1643]. Particulars: Mus musculus. The class given is functional, cell-based.
For assay [2], the target named is T1, RNA-editing ligase 1, mitochondrial (Trypanosoma brucei brucei, UniProt P86926).
T1 sequence (P86926 whole entry): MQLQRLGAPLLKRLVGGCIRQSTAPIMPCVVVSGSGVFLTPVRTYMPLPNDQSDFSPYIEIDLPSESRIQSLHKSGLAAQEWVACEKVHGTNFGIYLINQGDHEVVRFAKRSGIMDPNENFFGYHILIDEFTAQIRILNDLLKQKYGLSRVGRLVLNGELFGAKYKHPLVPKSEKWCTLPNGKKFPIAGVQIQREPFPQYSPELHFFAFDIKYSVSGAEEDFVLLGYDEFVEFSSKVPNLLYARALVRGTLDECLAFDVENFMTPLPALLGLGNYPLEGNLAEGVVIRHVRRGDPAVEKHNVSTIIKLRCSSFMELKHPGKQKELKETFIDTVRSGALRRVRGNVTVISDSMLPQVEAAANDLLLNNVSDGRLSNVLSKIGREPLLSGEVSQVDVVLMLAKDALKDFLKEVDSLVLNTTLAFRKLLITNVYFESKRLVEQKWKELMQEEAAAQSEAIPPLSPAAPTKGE
The assay can be described thus: TbREL1 ligase inhibitors, dose response, biochemical, fluorescence, Trypanosoma brucei (AID 1117295). The class given is functional.

The target in assay [3] is T2, Short transient receptor potential channel 4 (Mus musculus, UniProt Q9QUQ5).
T2 sequence (Q9QUQ5 whole entry): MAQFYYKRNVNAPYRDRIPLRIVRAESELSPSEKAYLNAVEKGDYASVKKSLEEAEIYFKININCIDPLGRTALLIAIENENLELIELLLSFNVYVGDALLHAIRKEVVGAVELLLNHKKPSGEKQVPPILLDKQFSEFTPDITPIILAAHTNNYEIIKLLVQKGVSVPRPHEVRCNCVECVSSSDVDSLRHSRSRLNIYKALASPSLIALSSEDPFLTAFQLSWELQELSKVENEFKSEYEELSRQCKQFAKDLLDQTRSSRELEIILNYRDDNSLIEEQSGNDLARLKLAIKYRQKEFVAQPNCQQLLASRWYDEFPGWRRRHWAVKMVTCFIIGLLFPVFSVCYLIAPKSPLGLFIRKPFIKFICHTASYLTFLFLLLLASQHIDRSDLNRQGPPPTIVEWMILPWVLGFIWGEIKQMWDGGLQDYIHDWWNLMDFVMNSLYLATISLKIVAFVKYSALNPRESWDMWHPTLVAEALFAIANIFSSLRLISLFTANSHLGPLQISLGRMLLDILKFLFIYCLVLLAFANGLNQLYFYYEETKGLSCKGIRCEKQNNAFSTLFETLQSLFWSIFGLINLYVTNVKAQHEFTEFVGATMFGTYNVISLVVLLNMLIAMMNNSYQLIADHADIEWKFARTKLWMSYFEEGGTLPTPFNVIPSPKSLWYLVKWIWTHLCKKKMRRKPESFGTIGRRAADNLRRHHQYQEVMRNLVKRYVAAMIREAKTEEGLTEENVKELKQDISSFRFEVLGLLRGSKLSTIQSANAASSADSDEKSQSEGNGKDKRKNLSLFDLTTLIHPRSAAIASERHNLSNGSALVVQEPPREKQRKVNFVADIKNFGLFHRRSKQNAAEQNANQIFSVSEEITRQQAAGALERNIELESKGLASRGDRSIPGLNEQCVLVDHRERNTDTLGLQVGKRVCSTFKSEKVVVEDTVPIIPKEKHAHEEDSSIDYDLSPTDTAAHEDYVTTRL
Nature of the assay: mouse TRPC4 channel inhibitors, dose response, cell-based, HEK293 TRPC4/mu-opioid, Fluo-4 calcium (AID 434942).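 Also: potency of inhibitors blocking the TRPC4 calcium response.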 The class given is functional.

Assay [4] concerns the target DNA repair protein RAD52 homolog (Homo sapiens, UniProt P43351). The class given is functional, biochemical.
Assay [5] concerns the target G-protein coupled receptor 55 (Homo sapiens, UniProt Q9Y2T6). Nature of the assay: GPR55 agonists via beta-arrestin recruitment, primary screen, imaging, U2OS cells, beta-arrestin-GFP redistribution (AID 1961). The class given is functional. A general note: Arrestin recruitment assays detect the binding of arrestin to an activated receptor.
Assay [6] has as its target T3, Kappa-type opioid receptor (Homo sapiens, UniProt P41145). Nature of the assay: SAR analysis of small molecule antagonists of the kappa opioid receptor via a luminescent beta-arrestin assay - Set 6. [Related pubchem assays (depositor defined):AID1777, AID1778, AID1785, AID1786, AID1966, AID2133, AID2136, AID2285]. The class given is functional.
In a further assay the target is Mu-type opioid receptor (Homo sapiens, UniProt P35372). Nature of the assay: SAR Analysis of Antagonists of the MOR Receptor using an Image-Based Assay - Set 3. [Related pubchem assays (depositor defined):AID1777, AID1785, AID1786, AID1966, AID2133, AID2136, AID2284, AID2285, AID2420]. The class given is functional.
The target in assay [7] is Delta-type opioid receptor (Homo sapiens, UniProt P41143). The assay can be described thus: SAR Analysis of Antagonists of the DOR Receptor using an Image-Based Assay - Set 3. [Related pubchem assays (depositor defined):AID1777, AID1785]. It counts as functional.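 Also: U2OS cells expressing DOR1 and beta-arrestin GFP stimulated with 100 nM SNC80; imaging of GFP-tagged beta-arrestin moving into spots after receptor activation.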
For assay [8], the target named is T3, Kappa-type opioid receptor. The assay can be described thus: SAR analysis of Antagonists of the Kappa Opioid Receptor (KOR) using an Image-Based Assay - Set 4. [Related pubchem assays (depositor defined):AID1777, AID1785]. It counts as functional.
Assay [9] concerns the target T3, Kappa-type opioid receptor. The assay can be described thus: SAR analysis of small molecule antagonists of the kappa opioid receptor via a luminescent beta-arrestin assay - Set 3. [Related pubchem assays (depositor defined):AID1777, AID1778, AID1785, AID1786, AID1966, AID2133, AID2136, AID2285, AID2495]. The class given is functional.

T3 sequence (P41145 whole entry): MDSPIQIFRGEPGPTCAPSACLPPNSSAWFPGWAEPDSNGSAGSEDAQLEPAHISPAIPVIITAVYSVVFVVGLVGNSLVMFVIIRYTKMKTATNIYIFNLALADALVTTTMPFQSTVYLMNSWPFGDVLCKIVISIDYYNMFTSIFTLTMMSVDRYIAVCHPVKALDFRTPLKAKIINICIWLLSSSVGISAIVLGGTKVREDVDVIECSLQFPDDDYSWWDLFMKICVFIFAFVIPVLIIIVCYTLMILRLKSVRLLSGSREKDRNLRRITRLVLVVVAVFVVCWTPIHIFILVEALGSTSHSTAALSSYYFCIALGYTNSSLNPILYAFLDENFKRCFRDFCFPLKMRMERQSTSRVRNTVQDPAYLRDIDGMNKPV
Delta-type opioid receptor, sequence (P41143 whole entry): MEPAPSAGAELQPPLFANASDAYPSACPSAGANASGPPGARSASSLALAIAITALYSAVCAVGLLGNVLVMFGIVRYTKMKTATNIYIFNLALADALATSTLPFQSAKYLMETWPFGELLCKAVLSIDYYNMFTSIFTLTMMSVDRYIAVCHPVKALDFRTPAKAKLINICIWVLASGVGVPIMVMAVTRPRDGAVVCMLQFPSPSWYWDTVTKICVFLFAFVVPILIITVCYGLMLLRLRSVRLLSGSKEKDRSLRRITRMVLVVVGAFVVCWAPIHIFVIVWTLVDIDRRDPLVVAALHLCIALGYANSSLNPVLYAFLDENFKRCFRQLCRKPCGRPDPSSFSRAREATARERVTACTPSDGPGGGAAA
DNA repair protein RAD52 homolog, sequence (P43351 whole entry): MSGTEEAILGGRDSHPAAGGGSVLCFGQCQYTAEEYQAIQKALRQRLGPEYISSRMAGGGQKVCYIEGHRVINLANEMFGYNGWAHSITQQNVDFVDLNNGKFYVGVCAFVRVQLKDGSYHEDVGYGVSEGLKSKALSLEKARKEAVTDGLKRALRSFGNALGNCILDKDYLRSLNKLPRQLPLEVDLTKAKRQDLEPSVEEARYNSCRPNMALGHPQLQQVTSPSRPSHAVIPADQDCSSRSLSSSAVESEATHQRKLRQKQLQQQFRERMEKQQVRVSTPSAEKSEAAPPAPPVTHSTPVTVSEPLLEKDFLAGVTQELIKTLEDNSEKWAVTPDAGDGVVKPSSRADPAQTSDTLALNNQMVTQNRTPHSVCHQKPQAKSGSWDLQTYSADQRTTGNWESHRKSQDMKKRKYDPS
G-protein coupled receptor 55, sequence (Q9Y2T6 whole entry): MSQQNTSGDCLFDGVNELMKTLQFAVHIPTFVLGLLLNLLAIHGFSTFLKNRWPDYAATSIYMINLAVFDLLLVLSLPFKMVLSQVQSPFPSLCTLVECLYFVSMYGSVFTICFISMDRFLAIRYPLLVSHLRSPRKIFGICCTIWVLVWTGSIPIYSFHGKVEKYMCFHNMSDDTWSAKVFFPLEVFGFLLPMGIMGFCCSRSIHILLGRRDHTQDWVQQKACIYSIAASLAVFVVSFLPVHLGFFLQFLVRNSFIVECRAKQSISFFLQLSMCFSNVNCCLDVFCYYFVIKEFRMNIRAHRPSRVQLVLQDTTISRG
Mu-type opioid receptor, sequence (P35372 whole entry): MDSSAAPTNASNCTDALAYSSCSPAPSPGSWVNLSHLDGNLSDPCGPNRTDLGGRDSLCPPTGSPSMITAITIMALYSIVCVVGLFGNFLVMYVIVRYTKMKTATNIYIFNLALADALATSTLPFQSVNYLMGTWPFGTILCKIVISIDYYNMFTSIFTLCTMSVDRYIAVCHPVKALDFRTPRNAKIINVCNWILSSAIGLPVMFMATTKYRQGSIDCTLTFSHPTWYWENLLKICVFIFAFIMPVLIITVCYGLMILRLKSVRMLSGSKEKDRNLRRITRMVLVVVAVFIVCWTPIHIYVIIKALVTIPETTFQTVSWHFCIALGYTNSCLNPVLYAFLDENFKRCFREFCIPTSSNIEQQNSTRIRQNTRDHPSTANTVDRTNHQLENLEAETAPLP

Regarding `Cc1cccc(N2CCN(C(=O)c3ccc(CS(=O)(=O)c4ccccc4C)o3)CC2C)c1` (stereo unspecified), the IC50 in [1] is 19500 nM (active); in the assay with J774.A1, 421 nM (active).

`CCCCCC[N+](C)(C)CC/C=C1/c2ccccc2Sc2ccc(Cl)cc21`: the IC50 in [2] is > 96600 nM (inactive). For the same compound, the EC50 in [3] is 299 nM (active). The AC50 in assay [4] is 10200 nM (active).

Take `CCN(CC)C(=O)CC(c1ccc2c(c1)OCO2)c1c(OC)cc(OC)c2c(-c3ccccc3)cc(=O)oc12` (stereo unspecified): the EC50 in [5] is 2720 nM (active).

As for `Cc1ccnc2c1n1cccc1c(=O)n2CC(=O)NCCCN1CCN(c2ccc(Cl)cc2)CC1`, the IC50 in assay [6] was 1010 nM (active); on Mu-type opioid receptor, > 32000 nM (inactive); in assay [7] it was > 32000 nM (inactive); in [8], 69.6 nM (active); in assay [9] it was 363 nM (active).

The term IC50 denotes the concentration at which inhibition is half-maximal. A word on the EC50: it is the midpoint of the concentration-response curve. As a reminder, the AC50 is the concentration at which the activity in the assay is half-maximal.
